ChEMBL document CHEMBL5104094, “Chemistry, biosynthesis and biological activity of terpenoids and meroterpenoids in bacteria and fungi isolated from different marine habitats” (Eur J Med Chem, 2021)
≈ marks a conversion by molar mass, not a printed value.

Key:
MCF7 = test: Cytotoxicity against human MCF7 cells assessed as cell growth inhibition by MTT assay; assay type: functional, cell-based
[1] = biological target: Platelet-activating factor receptor (Homo sapiens, UniProt P25105); test: Antagonist activity at PAFR (unknown origin); assay type: functional
HCT-116 [2] = test: Cytotoxicity against human HCT-116 cells assessed as cell growth inhibition incubated for 72 hrs by CellTiter 96 Aqueous One Solution Cell Proliferation assay; assay type: functional, cell-based; conditions: HCT-116, 72 h
HCT-116 [3] = test: Cytotoxicity against human HCT-116 cells assessed as cell growth inhibition by MTT assay; assay type: functional, cell-based
[4] = tested on: Mycolicibacterium smegmatis; test: Antibiofilm activity against Mycobacterium smegmatis assessed as inhibition of biofilm formation incubated for 4 days; assay type: functional; conditions: 96 h, time 4 day
HL-60 = test: Inhibition of cell adhesion of human HL-60 cells to human LPS-stimulated HUVEC cells incubated for 4 hrs with HUVEC cells followed by MTT-labeled HL-60 cells addition measured after 40 mins by absorbance based microplate reader analysis; assay type: functional
[5] = Inhibition of Influenza virus neuraminidase; set-up: species or system unidentified influenza virus
RAW264.7 = test: Antiinflammatory activity in LPS-stimulated mouse RAW264.7 cells assessed as inhibition of NO production incubated for 2 hrs followed by LPS stimulation measured after 48 hrs […]; assay type: functional, cell-based
[6] = tested on: Panel NCI-60 (60 carcinoma cell lines); test: Cytotoxicity against human Panel NCI-60 (60 carcinoma cell lines) assessed as cell growth inhibition; assay type: functional, cell-based
HCT-116 [7] = test: Cytotoxicity against human HCT-116 cells assessed as cell growth inhibition; assay type: functional, cell-based
[8] = biological target: Tyrosine-protein phosphatase non-receptor type 2 (Homo sapiens, UniProt P17706); test: Inhibition of recombinant human TCPTP expressed in Escherichia coli using p-nitrophenyl phosphate as substrate preincubated for 15 mins followed by substrate addition measured after 60 mins by absorbance based assay
[9] = biological target: Tyrosine-protein phosphatase non-receptor type 1 (Homo sapiens, UniProt P18031); test: Inhibition of recombinant human PTP1B expressed in Escherichia coli using p-nitrophenyl phosphate as substrate preincubated for 15 mins followed by substrate addition measured after 60 mins by absorbance based assay
[10] = biological target: T1, M-phase inducer phosphatase 2 (Homo sapiens, UniProt P30305); test: Inhibition of recombinant human CDC25B expressed in Escherichia coli using pnitrophenyl phosphate as substrate preincubated for 15 mins followed by substrate addition measured after 60 mins by absorbance based assay
T1 sequence (P30305 whole entry): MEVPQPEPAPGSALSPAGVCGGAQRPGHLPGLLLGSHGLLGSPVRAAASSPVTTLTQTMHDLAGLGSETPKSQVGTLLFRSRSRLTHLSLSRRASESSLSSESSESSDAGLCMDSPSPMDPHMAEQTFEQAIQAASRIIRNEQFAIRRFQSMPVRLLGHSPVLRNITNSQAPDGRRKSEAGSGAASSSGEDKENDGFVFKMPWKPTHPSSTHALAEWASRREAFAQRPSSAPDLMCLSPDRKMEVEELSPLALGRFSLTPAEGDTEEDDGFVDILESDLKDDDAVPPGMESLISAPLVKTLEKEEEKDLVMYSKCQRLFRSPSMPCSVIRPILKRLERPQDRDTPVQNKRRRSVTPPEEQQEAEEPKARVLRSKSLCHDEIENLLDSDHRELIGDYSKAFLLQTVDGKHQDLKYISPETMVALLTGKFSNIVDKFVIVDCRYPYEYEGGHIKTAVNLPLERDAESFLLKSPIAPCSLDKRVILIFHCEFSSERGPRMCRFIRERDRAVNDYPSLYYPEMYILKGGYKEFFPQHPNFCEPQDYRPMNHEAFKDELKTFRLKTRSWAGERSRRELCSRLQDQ

[11] = biological target: Tyrosine-protein phosphatase non-receptor type 6 (Homo sapiens, UniProt P29350); test: Inhibition of recombinant human SHP1 expressed in Escherichia coli using pnitrophenyl phosphate as substrate preincubated for 15 mins followed by substrate addition measured after 60 mins by absorbance based assay
Chain of Tyrosine-protein phosphatase non-receptor type 6 (P29350 whole entry): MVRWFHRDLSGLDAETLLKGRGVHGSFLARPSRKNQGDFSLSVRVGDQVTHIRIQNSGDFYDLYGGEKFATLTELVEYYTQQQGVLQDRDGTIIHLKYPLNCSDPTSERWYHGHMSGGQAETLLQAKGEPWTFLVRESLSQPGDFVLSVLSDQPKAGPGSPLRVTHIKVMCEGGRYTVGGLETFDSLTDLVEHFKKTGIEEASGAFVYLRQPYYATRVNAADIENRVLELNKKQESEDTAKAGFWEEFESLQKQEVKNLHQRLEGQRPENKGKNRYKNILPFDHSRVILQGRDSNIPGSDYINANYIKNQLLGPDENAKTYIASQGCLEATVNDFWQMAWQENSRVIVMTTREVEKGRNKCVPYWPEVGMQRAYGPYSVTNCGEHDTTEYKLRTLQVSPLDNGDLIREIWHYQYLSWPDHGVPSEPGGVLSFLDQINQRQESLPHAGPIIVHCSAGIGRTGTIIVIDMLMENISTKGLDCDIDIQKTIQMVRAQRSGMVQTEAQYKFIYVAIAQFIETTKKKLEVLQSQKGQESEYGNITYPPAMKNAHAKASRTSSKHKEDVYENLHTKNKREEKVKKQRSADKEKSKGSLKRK

Chain of Platelet-activating factor receptor (P25105 whole entry): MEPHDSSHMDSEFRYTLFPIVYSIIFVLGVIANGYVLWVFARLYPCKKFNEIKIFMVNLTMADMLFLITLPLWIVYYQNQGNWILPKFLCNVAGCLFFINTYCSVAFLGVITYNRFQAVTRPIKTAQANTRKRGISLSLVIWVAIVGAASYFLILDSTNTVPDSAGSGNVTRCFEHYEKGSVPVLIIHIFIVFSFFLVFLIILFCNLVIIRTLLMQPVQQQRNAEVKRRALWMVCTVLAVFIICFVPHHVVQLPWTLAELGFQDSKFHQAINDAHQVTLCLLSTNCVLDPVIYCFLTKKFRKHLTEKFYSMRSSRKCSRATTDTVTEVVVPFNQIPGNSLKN
Chain of Tyrosine-protein phosphatase non-receptor type 1 (P18031 whole entry): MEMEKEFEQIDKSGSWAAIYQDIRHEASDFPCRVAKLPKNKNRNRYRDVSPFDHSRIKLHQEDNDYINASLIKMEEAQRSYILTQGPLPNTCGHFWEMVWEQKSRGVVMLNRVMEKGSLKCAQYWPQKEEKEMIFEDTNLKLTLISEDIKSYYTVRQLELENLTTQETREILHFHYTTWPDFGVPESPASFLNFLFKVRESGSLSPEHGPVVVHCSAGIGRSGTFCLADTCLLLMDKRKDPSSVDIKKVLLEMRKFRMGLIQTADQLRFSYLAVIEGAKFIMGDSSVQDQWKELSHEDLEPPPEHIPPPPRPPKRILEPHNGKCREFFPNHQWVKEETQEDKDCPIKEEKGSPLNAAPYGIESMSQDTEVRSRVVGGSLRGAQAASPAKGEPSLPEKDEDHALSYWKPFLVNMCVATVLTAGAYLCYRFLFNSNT
Chain of Tyrosine-protein phosphatase non-receptor type 2 (P17706 whole entry): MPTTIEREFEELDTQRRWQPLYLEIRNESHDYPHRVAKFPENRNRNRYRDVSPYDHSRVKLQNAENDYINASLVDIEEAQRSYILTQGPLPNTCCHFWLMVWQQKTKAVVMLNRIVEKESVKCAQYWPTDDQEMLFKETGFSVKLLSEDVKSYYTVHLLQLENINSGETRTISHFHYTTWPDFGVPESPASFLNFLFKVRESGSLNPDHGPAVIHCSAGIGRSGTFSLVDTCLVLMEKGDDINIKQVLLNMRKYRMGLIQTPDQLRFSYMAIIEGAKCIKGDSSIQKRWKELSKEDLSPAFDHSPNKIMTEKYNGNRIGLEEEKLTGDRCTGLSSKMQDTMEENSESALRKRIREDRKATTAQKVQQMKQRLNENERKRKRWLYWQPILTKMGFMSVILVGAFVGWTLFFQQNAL

C=C[C@]1(C)C=C2C(=O)C(O)=C3C(C)(C)CCC[C@]3(C)[C@@]2(O)CC1
IC50 (MCF7): 35.9 µM

C/C1=C\CC[C@]2(C)O[C@@H]3C[C@@H](C)[C@@](C)(CC1)C1=C3[C@](O)(OC1)[C@H]2O
IC50 [1]: 2800 nM

C=C1CC[C@H](Cl)C(C)(C)[C@@H]1C[C@@]12OC(C)(C)[C@H](Cl)C[C@]1(Cl)C(=O)C1=C(C2=O)C(=[N+]=[N-])C(=O)C(C)=C1O
IC50 (HCT-116 [2]): 500 nM

CC(C)=CCn1c2ccc(Br)c(=O)c-2nc2ccccc21
IC50 (HCT-116 [3]): 29 nM

CC(C)=C/C=C\[C@H](C)[C@H]1CC[C@]2(C)C[C@H]3[C@H](C(=O)C[C@@]3(C)O)/C(C=O)=C\C[C@@H]12
MIC [4]: 25 µg/mL (≈ 64.9 µM)

CC(C)=C/C=C\[C@H](C)[C@H]1CC[C@]2(C)C[C@@H]3C(C)=CC(=O)[C@@H]3/C(C=O)=C\C[C@@H]12
MIC [4]: 6.23 µg/mL (≈ 17 µM)

C=C[C@@]1(C)CCC2=C([C@H]1O)[C@H](O)[C@]1(O)OC[C@@]23CCCC(C)(C)[C@@]31O
IC50 (MCF7): > 70 µM

C=C(CO)[C@@]1(O)[C@@H](O)[C@@]2(C)[C@H](CCC[C@@H]2C)C[C@@H]1O
IC50 (HL-60): 15.6 µM

C=C1[C@]23C(=O)O[C@@H](C)[C@@]2(O)C(=O)O[C@@]1(C)[C@H](O)C1=C(C)[C@@]2(C=CC(=O)OC2(C)C)CC[C@]13C
IC50 [5]: 1370 nM

C=C1[C@@H](OC(C)=O)[C@@H]2[C@](C)(C(=O)C(O)=C3C(C)(C)C(=O)CC[C@]32C)[C@]2(C(=O)OC)C(=O)[C@@H](C)OC(=O)[C@]12C
IC50 (RAW264.7): 13.4 µM

C=C1[C@@H](OC(C)=O)[C@@H]2[C@](C)(C(=O)C(O)=C3C(C)(C)C(=O)C=C[C@]32C)[C@]2(C(=O)OC)C(=O)[C@@H](C)OC(=O)[C@]12C
IC50 (RAW264.7): 13.4 µM

C=C1COC(OC)[C@@]12C[C@H]1C[C@H](O)C[C@H](C)[C@@]1(C)C2 (stereo partly specified)
IC50 (HL-60): 11.5 µM

C[C@H]1CC[C@@]23C1=C[C@@]1(C)CC[C@](C)(C[C@H](O)C(=O)[C@@](C)(O)CO)[C@H]1[C@@H]2CC[C@@H]3C
IC50 [6]: 18 µM

C=C[C@]1(C)C=C2C(=O)C(O)=C3C(C)(C)CC[C@@H](O)[C@]3(C)[C@@]2(O)CC1
IC50 (HCT-116 [7]): 15 µM

C[C@@H]1[C@@H](O)C=C2C(=O)[C@H]3O[C@@]3(C)CCC[C@H]3O[C@@]3(C)C[C@]1(C)[C@@]2(C)O
IC50 [1]: 2800 nM

C[C@H]1CC[C@@]23C1=C[C@@]1(C)CC[C@](C)(C[C@H](O)[C@H](O)C(C)(C)O)[C@H]1[C@@H]2CC[C@@H]3C
IC50 [6]: 18 µM

CC(C)(O)[C@H]1OC2CC[C@@]3(C)[C@@](O)(CC[C@H]4C[C@]5(OCNc6ccccc65)C(=O)[C@@]43C)C2=CC1=O (stereo partly specified)
IC50 [8]: 1700 nM
IC50 [9]: 1700 nM

C=C1[C@]23C(=O)O[C@@H](C)[C@@]2(O)C(=O)O[C@@]1(C)[C@H](OC(C)=O)C1=C(C)[C@@]2(C=CC(=O)OC2(C)C)CC[C@]13C
IC50 [5]: 1370 nM

C/C1=C\CC[C@@H]2O[C@H]2C(=O)C2=CC[C@@H](C)[C@@](C)(C[C@@H]1O)[C@@H]2C
IC50 [1]: 2800 nM

COC(=O)[C@]12[C@](C)(C(=O)[C@@]1(C)O)C(C)=C[C@H]1[C@]34CC[C@H](OC(C)=O)C(C)(C)[C@H]3[C@H](C[C@@]12C)OC4=O
IC50 [10]: 18 µM
IC50 [11]: 23 µM

C[C@@H]1CC=C2C(=O)[C@H]3O[C@]3(C)CC[C@@H]3O[C@@]3(C)CC[C@@]1(C)[C@@]2(C)O
IC50 [1]: 2800 nM

C=C1CC[C@H](Cl)C(C)(C)[C@@H]1C[C@@]12OC(C)(C)[C@H](Cl)C[C@@]1(Cl)C(=O)c1c(cc(O)c(C)c1O)C2=O
IC50 (HCT-116 [2]): 3000 nM

C=C1C2=CC[C@@H](C)[C@@]1(C)CC/C(C)=C/CC[C@H]1O[C@@H]1C2=O
IC50 [1]: 2500 nM

C=C[C@]1(C)C=C2C(=O)C(O)=C3[C@](C)(CO)CC[C@@H](O)[C@]3(C)[C@@]2(O)CC1
IC50 (HCT-116 [7]): 53 µM
